From the NIST ThermoML archive (doi:10.1016/j.jct.2016.03.026)

Test: xn = mol fraction of the nth substance listed
Conditions: 263.15 K, Fluid (supercritical or subcritical phases), Vibrating tube method, x1 = 0.97

O=C=O [carbon dioxide] + CO
Conditions	mass density [kg/m3]
10575 kPa	1020.02
10600 kPa	1020.11
10625 kPa	1020.19
10650 kPa	1020.27
10675 kPa	1020.44
10700 kPa	1020.52
10725 kPa	1020.6
10750 kPa	1020.68
10775 kPa	1020.76
10800 kPa	1020.93
10825 kPa	1021.01
10850 kPa	1021.09
10875 kPa	1021.17
10900 kPa	1021.25
10925 kPa	1021.42
10950 kPa	1021.5
10975 kPa	1021.58
11000 kPa	1021.66
11025 kPa	1021.83
11050 kPa	1021.91
11075 kPa	1021.99
11100 kPa	1022.07
11125 kPa	1022.15
11150 kPa	1022.29
11175 kPa	1022.4
11200 kPa	1022.48
11225 kPa	1022.56
11250 kPa	1022.64
11275 kPa	1022.8
11300 kPa	1022.89
11325 kPa	1022.97
11350 kPa	1023.05
11375 kPa	1023.13
11400 kPa	1023.29
11425 kPa	1023.38
11450 kPa	1023.46
11475 kPa	1023.54
11500 kPa	1023.62
11525 kPa	1023.75
11550 kPa	1023.86
11575 kPa	1023.95
11600 kPa	1024.03
11625 kPa	1024.11
11650 kPa	1024.21
11675 kPa	1024.35
11700 kPa	1024.44
11725 kPa	1024.52
11750 kPa	1024.6
11775 kPa	1024.74
11800 kPa	1024.84
11825 kPa	1024.93
11850 kPa	1025.01
11875 kPa	1025.09
11900 kPa	1025.19
11925 kPa	1025.29
11950 kPa	1025.41
11975 kPa	1025.5
12000 kPa	1025.58
12025 kPa	1025.66
12050 kPa	1025.75
12075 kPa	1025.9
12100 kPa	1025.98
12125 kPa	1026.07
12150 kPa	1026.15
12175 kPa	1026.31
12200 kPa	1026.39
12225 kPa	1026.47
12250 kPa	1026.56
12275 kPa	1026.64
12300 kPa	1026.72
12325 kPa	1026.88
12350 kPa	1026.96
12375 kPa	1027.05
12400 kPa	1027.13
12425 kPa	1027.21
12450 kPa	1027.29
12475 kPa	1027.38
12500 kPa	1027.53
12525 kPa	1027.62
12550 kPa	1027.7
12575 kPa	1027.78
12600 kPa	1027.86
12625 kPa	1027.96
12650 kPa	1028.09
12675 kPa	1028.19
12700 kPa	1028.27
12725 kPa	1028.35
12750 kPa	1028.43
12775 kPa	1028.51
12800 kPa	1028.6
12825 kPa	1028.76
12850 kPa	1028.84
12875 kPa	1028.92
12900 kPa	1029
12925 kPa	1029.08
12950 kPa	1029.2
12975 kPa	1029.3
13000 kPa	1029.41
13025 kPa	1029.49
13050 kPa	1029.57
13075 kPa	1029.65
13100 kPa	1029.73
13125 kPa	1029.88
13150 kPa	1029.94
13175 kPa	1030.06
13200 kPa	1030.14
13225 kPa	1030.22
13250 kPa	1030.31
13275 kPa	1030.39
13300 kPa	1030.53
13325 kPa	1030.63
13350 kPa	1030.71
13375 kPa	1030.8
13400 kPa	1030.88
13425 kPa	1030.96
13450 kPa	1031.04
13475 kPa	1031.14
13500 kPa	1031.29
13525 kPa	1031.37
13550 kPa	1031.45
13575 kPa	1031.53
13600 kPa	1031.61
